Experimental data published in PubChem BioAssay (NCI).
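Dose response: 5 concentrations. Exposure: 48 h. Format: 96-well plates. Endpoint: linear interpolation; highest concentration if not reached. TGI: total growth inhibition.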

Legend:
Experiment in all cases: inhibition of tumour cell growth, NCI panel, 48 h
786-0 renal = system: 786-0 renal
A498 renal = system: A498 renal
A549 NSCLC = system: A549 NSCLC
ACHN renal = system: ACHN renal
CAKI-1 renal = system: CAKI-1 renal
CCRF-CEM leukemia = system: CCRF-CEM leukemia
COLO 205 colon = system: COLO 205 colon
DLD-1 colon = system: DLD-1 colon
DMS 114 small cell lung = system: DMS 114 small cell lung
EKVX NSCLC = system: EKVX NSCLC
HCC-2998 colon = system: HCC-2998 colon
HCT-116 colon = system: HCT-116 colon
HCT-15 colon = system: HCT-15 colon
HL-60(TB) leukemia = system: HL-60(TB) leukemia
HOP-62 NSCLC = system: HOP-62 NSCLC
HOP-92 NSCLC = system: HOP-92 NSCLC
HT29 colon = system: HT29 colon
IGROV1 ovarian = system: IGROV1 ovarian
K-562 leukemia = system: K-562 leukemia
KM12 colon = system: KM12 colon
KM20L2 colon = system: KM20L2 colon
LOX IMVI melanoma = system: LOX IMVI melanoma
LXFL 529 NSCLC = system: LXFL 529 NSCLC
M14 melanoma = system: M14 melanoma
M19-MEL melanoma = system: M19-MEL melanoma
MALME-3M melanoma = system: MALME-3M melanoma
MOLT-4 leukemia = system: MOLT-4 leukemia
NCI-H226 lung = system: NCI-H226 lung
NCI-H23 lung = system: NCI-H23 lung
NCI-H460 lung = system: NCI-H460 lung
NCI-H522 lung = system: NCI-H522 lung
OVCAR-3 ovarian = system: OVCAR-3 ovarian
OVCAR-4 ovarian = system: OVCAR-4 ovarian
OVCAR-5 ovarian = system: OVCAR-5 ovarian
OVCAR-8 ovarian = system: OVCAR-8 ovarian
RPMI-8226 leukemia = system: RPMI-8226 leukemia
RXF 393 renal = system: RXF 393 renal
RXF-631 renal = system: RXF-631 renal
SF-268 CNS = system: SF-268 CNS
SF-295 CNS = system: SF-295 CNS
SF-539 CNS = system: SF-539 CNS
SK-MEL-2 melanoma = system: SK-MEL-2 melanoma
SK-MEL-28 melanoma = system: SK-MEL-28 melanoma
SK-MEL-5 melanoma = system: SK-MEL-5 melanoma
SK-OV-3 ovarian = system: SK-OV-3 ovarian
SN12C renal = system: SN12C renal
SNB-19 CNS = system: SNB-19 CNS
SNB-75 CNS = system: SNB-75 CNS
SNB-78 CNS = system: SNB-78 CNS
SW-620 colon = system: SW-620 colon
TK-10 renal = system: TK-10 renal
U251 CNS = system: U251 CNS
UACC-257 melanoma = system: UACC-257 melanoma
UACC-62 melanoma = system: UACC-62 melanoma
UO-31 renal = system: UO-31 renal
XF 498 CNS = system: XF 498 CNS

For `N#C/C(=C\c1cc(OCc2ccccc2)c(OCc2ccccc2)cn1)C(N)=O`, the TGI (786-0 renal) was over 100 µM, the TGI (A498 renal) was over 100 µM and the TGI (A549 NSCLC) was over 100 µM. For the same molecule, the TGI (ACHN renal) was over 100 µM, the TGI (CAKI-1 renal) was over 100 µM and the TGI (CCRF-CEM leukemia) was over 100 µM. For the same molecule, the TGI (COLO 205 colon) was over 100 µM, the TGI (DLD-1 colon) was over 100 µM and the TGI (DMS 114 small cell lung) was over 100 µM. It also gave a TGI (EKVX NSCLC) of over 100 µM, a TGI (HCC-2998 colon) of over 100 µM and a TGI (HCT-116 colon) of over 100 µM. The TGI (HCT-15 colon) was over 100 µM, the TGI (HL-60(TB) leukemia) was 36.9 µM and the TGI (HOP-62 NSCLC) was over 100 µM. The TGI (HOP-92 NSCLC) was over 100 µM, the TGI (HT29 colon) was over 100 µM and the TGI (IGROV1 ovarian) was over 100 µM. For the same molecule, the TGI (K-562 leukemia) was over 100 µM, the TGI (KM12 colon) was over 100 µM and the TGI (KM20L2 colon) was over 100 µM. For the same molecule, the TGI (LOX IMVI melanoma) was over 100 µM, the TGI (LXFL 529 NSCLC) was over 100 µM and the TGI (M14 melanoma) was over 100 µM. For the same molecule, the TGI (M19-MEL melanoma) was over 100 µM, the TGI (MALME-3M melanoma) was over 100 µM and the TGI (MOLT-4 leukemia) was 52.4 µM. For the same molecule, the TGI (NCI-H226 lung) was over 100 µM, the TGI (NCI-H23 lung) was over 100 µM and the TGI (NCI-H460 lung) was over 100 µM. The TGI (NCI-H522 lung) was 41.2 µM, the TGI (OVCAR-3 ovarian) was over 100 µM and the TGI (OVCAR-4 ovarian) was over 100 µM. It also gave a TGI (OVCAR-5 ovarian) of over 100 µM, a TGI (OVCAR-8 ovarian) of over 100 µM and a TGI (RPMI-8226 leukemia) of over 100 µM. For the same molecule, the TGI (RXF 393 renal) was over 100 µM, the TGI (RXF-631 renal) was over 100 µM and the TGI (SF-268 CNS) was over 100 µM. For the same molecule, the TGI (SF-295 CNS) was over 100 µM, the TGI (SF-539 CNS) was over 100 µM and the TGI (SK-MEL-2 melanoma) was over 100 µM. It also gave a TGI (SK-MEL-28 melanoma) of over 100 µM, a TGI (SK-MEL-5 melanoma) of over 100 µM and a TGI (SK-OV-3 ovarian) of over 100 µM. For the same molecule, the TGI (SN12C renal) was over 100 µM, the TGI (SNB-19 CNS) was over 100 µM and the TGI (SNB-75 CNS) was over 100 µM. It also gave a TGI (SNB-78 CNS) of over 100 µM, a TGI (SW-620 colon) of over 100 µM and a TGI (TK-10 renal) of over 100 µM. The TGI (U251 CNS) was over 100 µM, the TGI (UACC-257 melanoma) was over 100 µM and the TGI (UACC-62 melanoma) was over 100 µM. It also gave a TGI (UO-31 renal) of over 100 µM and a TGI (XF 498 CNS) of over 100 µM.
